Experimental data as given in ChEMBL document CHEMBL1146623, “Two antiviral compounds from the plant Stylogne cauliflora as inhibitors of HCV NS3 protease” (Bioorg Med Chem Lett, 2003).

Experiments:
NS3 [1] = target: T1, NS3 (Hepatitis C virus, UniProt A3EZJ3); assay: Inhibitory activity evaluated in the HCV NS3 protease assay; design: species or system Hepacivirus hominis
NS3 [2] = target: T1, NS3; assay: Inhibitory activity evaluated in the HCV NS3 protease activity assay; design: species or system Hepacivirus hominis

T1 sequence (A3EZJ3 whole entry): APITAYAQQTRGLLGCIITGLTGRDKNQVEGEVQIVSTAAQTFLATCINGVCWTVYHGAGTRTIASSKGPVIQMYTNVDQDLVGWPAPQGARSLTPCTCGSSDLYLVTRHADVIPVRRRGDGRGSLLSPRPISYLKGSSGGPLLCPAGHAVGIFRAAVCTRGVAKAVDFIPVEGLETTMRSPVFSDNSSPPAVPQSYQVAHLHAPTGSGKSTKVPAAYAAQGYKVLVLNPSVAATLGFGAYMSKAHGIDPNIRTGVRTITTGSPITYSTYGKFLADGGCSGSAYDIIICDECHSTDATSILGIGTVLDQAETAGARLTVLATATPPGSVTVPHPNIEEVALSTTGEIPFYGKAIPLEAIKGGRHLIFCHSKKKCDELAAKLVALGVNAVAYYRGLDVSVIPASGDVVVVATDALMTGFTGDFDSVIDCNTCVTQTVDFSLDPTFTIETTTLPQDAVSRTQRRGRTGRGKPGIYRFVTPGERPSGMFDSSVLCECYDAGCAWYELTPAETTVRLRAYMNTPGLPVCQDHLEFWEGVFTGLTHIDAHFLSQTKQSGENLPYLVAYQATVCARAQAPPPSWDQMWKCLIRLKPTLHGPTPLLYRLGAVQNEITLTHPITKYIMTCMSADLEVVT

| IC50 (NS3 [1]) [µM] | IC50 (NS3 [2]) [µM] | SMILES |
| --- | --- | --- |
| 0.8 | – | O=C1OC[C@H]2O[C@@H](Oc3cc(O)c(C(=O)CCc4ccccc4)c(O)c3)[C@H](O)[C@@H](O)[C@@H]2OC(=O)c2cc(O)c(O)c(O)c2-c2c1cc(O)c(O)c2O [THONNINGIANIN B] |
| – | 0.3 | O=C1OC[C@H]2O[C@@H](Oc3cc(O)c4c(c3)OC(c3ccccc3)CC4=O)[C@H](O)[C@@H](O)[C@@H]2OC(=O)c2cc(O)c(O)c(O)c2-c2c1cc(O)c(O)c2O (some centres not stated) |
